Holding throughout (format): functional, cell-based
Series [1] addresses T1, ATP-dependent translocase ABCB1 (Homo sapiens, UniProt P08183). Kind of series: TP_TRANSPORTER: increase in Calcein-AM intracellular accumulation (Calcein-AM: 0.5 uM, Oligomycin: 5 uM) in MDR1-expressing NIH-3T3 cells. The following applies: mouse, nih3t3, 5 µM.
Series [2] concerns the target T1, ATP-dependent translocase ABCB1. Kind of series: TP_TRANSPORTER: increase in Calcein-AM intracellular accumulation (Calcein-AM: 0.5 uM, Taxol: 20 uM) in MDR1-expressing NIH-3T3 cells. The following applies: mouse, nih3t3, 20 µM.
For series [3] the target is unchanged. As to the kind of experiment: TP_TRANSPORTER: increase in Calcein-AM intracellular accumulation (Calcein-AM: 0.5 uM, Prazosin: 10 uM) in MDR1-expressing NIH-3T3 cells. The note with it: mouse, nih3t3, 10 µM.
For series [4] the target is unchanged. Kind of series: TP_TRANSPORTER: increase in Calcein-AM intracellular accumulation (Calcein-AM: 0.5 uM, Puromycin: 20 uM) in MDR1-expressing NIH-3T3 cells. The note with it: mouse, nih3t3, 20 µM.
The target is the same in series [5]. Kind of series: TP_TRANSPORTER: increase in Calcein-AM intracellular accumulation (Calcein-AM: 0.5 uM, Vincristine: 200 uM) in MDR1-expressing NIH-3T3 cells. The note with it: mouse, nih3t3, 200 µM.

T1 sequence (P08183 whole entry): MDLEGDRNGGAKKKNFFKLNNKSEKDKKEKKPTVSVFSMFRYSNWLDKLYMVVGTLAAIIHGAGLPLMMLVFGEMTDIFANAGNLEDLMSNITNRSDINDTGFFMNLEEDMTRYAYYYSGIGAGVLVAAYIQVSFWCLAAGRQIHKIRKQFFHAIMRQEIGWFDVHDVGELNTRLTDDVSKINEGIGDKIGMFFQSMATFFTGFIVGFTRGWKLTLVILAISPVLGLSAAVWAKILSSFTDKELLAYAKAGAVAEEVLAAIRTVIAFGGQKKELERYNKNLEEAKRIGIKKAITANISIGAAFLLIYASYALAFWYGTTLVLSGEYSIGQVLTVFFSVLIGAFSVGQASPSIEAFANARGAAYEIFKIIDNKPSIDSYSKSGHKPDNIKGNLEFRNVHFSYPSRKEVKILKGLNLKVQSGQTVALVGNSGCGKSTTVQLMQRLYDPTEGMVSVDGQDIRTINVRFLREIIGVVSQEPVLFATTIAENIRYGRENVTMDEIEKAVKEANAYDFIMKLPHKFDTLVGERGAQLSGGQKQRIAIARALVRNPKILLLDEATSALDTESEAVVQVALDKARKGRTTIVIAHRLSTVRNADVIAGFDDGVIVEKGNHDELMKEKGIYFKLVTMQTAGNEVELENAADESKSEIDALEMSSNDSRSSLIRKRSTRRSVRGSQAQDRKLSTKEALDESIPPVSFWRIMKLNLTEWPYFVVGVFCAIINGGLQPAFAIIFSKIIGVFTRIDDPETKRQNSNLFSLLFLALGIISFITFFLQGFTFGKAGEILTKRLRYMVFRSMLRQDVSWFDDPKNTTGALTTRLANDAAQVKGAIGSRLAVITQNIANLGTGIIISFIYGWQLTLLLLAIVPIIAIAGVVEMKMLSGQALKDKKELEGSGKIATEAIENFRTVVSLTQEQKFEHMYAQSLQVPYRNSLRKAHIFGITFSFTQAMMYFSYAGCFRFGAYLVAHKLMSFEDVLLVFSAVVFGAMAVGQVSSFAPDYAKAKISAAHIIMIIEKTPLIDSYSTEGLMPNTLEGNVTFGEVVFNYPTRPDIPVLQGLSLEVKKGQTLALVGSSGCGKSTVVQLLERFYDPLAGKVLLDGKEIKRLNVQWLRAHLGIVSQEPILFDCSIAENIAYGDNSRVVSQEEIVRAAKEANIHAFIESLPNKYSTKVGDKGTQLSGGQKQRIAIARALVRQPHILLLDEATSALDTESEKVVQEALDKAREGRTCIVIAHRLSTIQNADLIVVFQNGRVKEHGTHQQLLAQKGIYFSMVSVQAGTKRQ

As for `CC[C@H]1/C=C/C=C/C[C@@H](C)[C@H](O)[C@@](C)(O)C(=O)[C@@H](C)[C@H](O)[C@@H](C)C(=O)[C@@H](C)[C@H](O)[C@@H](C)/C=C/C(=O)O[C@@H]2[C@H](C)[C@H](CC1)O[C@]1(CC[C@H](C)[C@H](C[C@@H](C)O)O1)[C@H]2C` [OLIGOMYCIN], in series [1], the Activity entry is “is not an inhibitor [-]”.

With `CC(=O)O[C@H]1C(=O)[C@@]2(C)[C@H]([C@H](OC(=O)c3ccccc3)[C@]3(O)C[C@H](OC(=O)[C@H](O)[C@@H](NC(=O)c4ccccc4)c4ccccc4)C(C)=C1C3(C)C)[C@]1(OC(C)=O)CO[C@@H]1C[C@@H]2O` [PACLITAXEL], in series [2], the Activity entry is “is not an inhibitor [-]”.

As to `COc1cc2nc(N3CCN(C(=O)c4ccco4)CC3)nc(N)c2cc1OC` [PRAZOSIN], the Activity result in series [3] was “is not an inhibitor [-]”.

With `COc1ccc(C[C@H](N)C(=O)N[C@H]2[C@@H](O)[C@H](n3cnc4c(N(C)C)ncnc43)O[C@@H]2CO)cc1` [PUROMYCIN], the Activity result in series [4] was “is not an inhibitor [-]”.

In the case of `CC[C@]1(O)C[C@H]2CN(CCc3c([nH]c4ccccc34)[C@@](C(=O)OC)(c3cc4c(cc3OC)N(C=O)[C@H]3[C@@](O)(C(=O)OC)[C@H](OC(C)=O)[C@]5(CC)C=CCN6CC[C@]43[C@@H]65)C2)C1` [VINCRISTINE], in series [5], the Activity result was “is not an inhibitor [-]”.

Source of the values: ChEMBL document CHEMBL2074246, “Distinct groups of multidrug resistance modulating agents are distinguished by competition of P-glycoprotein-specific antibodies” (Biochem Biophys Res Commun, 2004).
